Source: patent US4645756A, “[α,ω-bis(diphenylphosphino)hydrocarbon]bis[(thiosugar)gold] and bis[(selenosugar)gold] derivatives, pharmaceutical compositions and method of use” (priority 1985, dated 1987)
Where “and” joins values, the source holds several entries; their conditions need not be identical. Equal entries are not always repeated.

Key:
[1] = system: mammary adenocarcinoma 16/c; assay: mammary adenocarcinoma 16/c implanted sc in C3H mice; assay type: in vivo, mouse; conditions: ip, q4D × 5
Protocol: Compound No. 1 from Table A was also tested in a further in vivo tumor model, mammary adenocarcinoma 16/c, a tumor model sensitive to DNA binders and alkylating agents. In this experiment, the tumor was implanted sc in C3H mice, and the drug was administered ip or iv on an intermittant treatment schedule, i.e., once on days 1, 5, 9, 13 and 17. Tumors were measured 3 weeks after implantation, and activity was assessed by degree of tumor growth inhibition.

[2] = system: ADJ-PC6 Plasmacytoma; assay: ADJ-PC6 Plasmacytoma implanted sc in BALB/c female mice; assay type: in vivo, mouse
Protocol: Likewise, Compound No. 1 from Table A was tested in an additional in vivo tumor model known as ADJ-PC6 Plasmacytoma. In this assay, tumor cells are carried by serial sc passage in BALB/c female mice and then collected aseptically on ca. day 21 and minced in Hank's balanced salt solution. The cells are then dispersed by homogenization in a loose-fitting teflon glass homogenizer, and cell concentration is adjusted to 4×10^6 viable ([…]) cells per ml by hemocytometer counts. A total of 0.5 ml (2×10^6 cells) is implanted sc on the right flank of BALB/c female mice in groups of 8. Treatment is given ip on Days 1-10, and tumors are measured in perpendicular diameters with a vernier caliper on Day 18. Tumor volume is calculated by multiplying length×width^2×0.5. Generally, ≥75% inhibition of tumor growth reflects significant antitumor effect.

[3] = system: mammary adenocarcinoma 16/c; conditions: general statement on the positive control; cited from earlier work
[4] = system: B16 melanoma cells; assay: B16 mouse melanoma cell clonogenic cytotoxicity assay in vitro, two hour exposure; assay type: cell-based; conditions: B16 cloning efficiency; 2 hour exposure; 10% fetal calf serum
Protocol: The B16 mouse melanoma cell assay measures the ability of a compound to inhibit the clonogenic capacity of cells in vitro following a two hour exposure to the compound.
B16 melanoma (highly metastatic subline, F10) are used and maintained as monolayer cultures in Minimal Essential Media (Grand Island Biological Co., Grand Island, N.Y.) supplemented with 10% calf serum, 1% antibiotics in a 5% CO2 humidified incubator at 37° C. Asynchronous populations of cells are harvested and replated to 5000 cells/plate in sterile 60 mm×15 mm petri plates. Plates are incubated overnight to allow attachment of the cells to the plate. Cells are treated with the compound to be evaluated under sterile conditions, allowed to react for 2 hours followed by aspiration of medium. Plates are washed one time with 5 ml of phosphate buffered saline (PBS), followed by the addition of 5 ml of fresh media. […] Viability is measured by the ability of a cell to form a colony of greater than 50 cells. […] Plates are dried and counted with a Biotran III Automatic Count Totalized (New Brunswick Scientific Co., Edison, N.J.). Mean and standard deviation of triplicate samples are determined for each drug concentration. The data are analyzed by plotting the log of the survival fraction (number of colonies in drug treated plates/number of colonies in controls) versus the drug concentration. […]

[5] = system: HT-29 human colon carcinoma cells; assay: HT-29 human colon carcinoma cell kill in vitro, 2 hour exposure; assay type: cell-based; conditions: +FCS
Protocol: Additionally, in another in vitro assay, Compound No. 1 effectively killed HT-29 human colon carcinoma cells, with an IC50 (+FCS) of 5 μM following a 2 hour exposure.

[6] = system: M5076 reticulum cell sarcoma; assay: ip implanted M5076 reticulum cell sarcoma in mice; assay type: in vivo, mouse; conditions: mice bearing ip M5076; ip qD × 10; slash-separated figures are separate experiments
Protocol: Another chemosensitive tumor model is intraperitoneally (ip) implanted M5076 reticulum cell sarcoma in mice. In this system B6D2F female mice are inoculated with 0.5 ml of a 10 percent (w:v) brei of M5076 prepared from pooled subcutaneous (sc) tumors excised at about 21 days from C57B1/6 donors. Drugs are administered ip. Daily treatement is begun 24 hours after implantation and is continued for ten days. The treatment regimen for M5076 is more prolonged than for P388 because of the slower growth rate and longer control survival time of the M5076 tumor. The antitumor activity of Compounds No. 1 and No. 2 of Table A in the M5076 reticulum cell sarcoma tumor model is set forth in Table 2.

[7] = system: P388 lymphocytic leukemia; assay: in vivo ip P388 leukemia mouse model; conditions: for ILS relative to cisplatin / activity in the P388 leukemia assay: ip P388, in words; for ILS (Max), maximum increase in lifespan: mice bearing ip P388 leukemia, ip days 1-5, slash-separated figures are separate experiments
Description: P388 lymphocytic leukemia is currently the most widely used animal tumor model for screening for antitumor agents and for detailed evaluation of active compounds. This tumor system is widely accepted as an antitumor agent screening tool because it is sensitive to virtually all of the clinically active antineoplastic agents; quantitative and reproducible; amenable for large-scale screening; and predictive for activity in other animal tumor models.
10^6 P388 leukemia cells are inoculated ip in B6D2F1 mice. Twenty-four hours later, if the tumor inoculum proves to be free of bacterial contamination (as determined by 24 hours incubation in thioglycollate broth), animals are randomized into groups of 6 and housed in shoebox cages. […] An equal volume of saline is added; if the drug comes out of solution an equal volume of polyethoxylated castor oil is added and then saline qs to a concentration such that the desired dose is delivered in 0.5 ml. The final concentration of DMA, ethanol and polyethoxylated castor oil is 10 percent. Dilutions for lower doses are made with saline so there is a decreasing proportion of organic solvents in the vehicle with decreasing dosage. These vehicles provide soluble formulations (or suspensions). Formulations are prepared immediately prior to injection. The compound is administered ip on Days 1 through 5 (i.e. treatment is initiated 24 hrs after tumor inoculation). Each experiment includes three groups of 6 animals as untreated controls and animals treated with a positive control, cisplatin, at two dose levels. Animals are weighed as a group on Days 1, 5 and 9 and average weight change (Δwt.) is used as a reflection of toxicity. Each experiment also includes an inoculum titration--groups of 8 mice inoculated ip with 10^5 to 10° P388 leukemia cells. The titration is used to calculate cell kill achieved by treatment with drugs. Animals are monitored daily for mortality and experiments are terminated after 45 days. The endpoint is median survival time (MST) and increase in lifespan (ILS) which is the percentage of increase in MST relative to untreated controls. Untreated controls inoculated ip with 10^6 P388 leukemia cells generally survive for a median of 10 or 11 days. A drug is considered active if it produces ≥25 percent ILS.

[8] = system: B16 melanoma; assay: in vivo ip B16 melanoma in mice; set-up: species or system mouse
Protocol: In this system, groups of eight B6D2F1 mice are inoculated ip with 0.5 ml of a 10% (w:v) brei of B16 melanoma prepared from pooled sc tumors excised at 14-21 days from […] donor mice. Daily treatment is begun 24 hours after tumor implantation and is continued daily for ten (10) days. The route of drug administration is ip. The mice are monitored daily for survival for sixty (60) days. Antitumor activity is assessed by prolongation of median survival time. An ILS of ≥25% indicates activity in this tumor model.
Similarly, in another additional in vivo tumor model, namely B16 melanoma in mice, Compound No. 1 from Table A, administered ip in a dosage schedule of 8, 4, 2, 1 and 0.5 mg/kg produced an average increase in lifespan (ILS) of 32% at a maximally tolerated dose (MTD) of 3.4 μM/kg.

[9] = system: P388 leukemia; conditions: cited from earlier work
[10] = Struck et al. 1966; cited from earlier work
[11] = Dumas et al., JP 58,192,893; cited from earlier work

Question: Which Inhibition ([1]; Experiment 1, 6 mg/kg) does the source give for `N.N.[Cl][Pt][Cl]` [Cisplatin, cisplatin] here?
Answer: 97%

Question: And the “Mean Tumor Volume on Day 21” value ([1]; Experiment 1, 6 mg/kg)?
Answer: 30 ± 64 mm^3

Question: What about the “N.P., proportion of mice without palpable tumors on Day 21” value ([1]; Experiment 1, 6 mg/kg) of the same molecule?
Answer: 6/8

Question: What about the Inhibition ([1]; Experiment 2, 6 mg/kg) of the same molecule?
Answer: 100% and 98%

Question: And the “N.P., proportion of mice without palpable tumors on Day 21” value ([1]; Experiment 2, 6 mg/kg)?
Answer: 8/8 and 7/8

Question: What about the Inhibition ([1]; Experiment 2, 8 mg/kg) of the same molecule?
Answer: 36%

Question: And the “Mean Tumor Volume on Day 21” value ([1]; Experiment 2, 8 mg/kg)?
Answer: 711 ± 268 mm^3

Question: What about the “N.P., proportion of mice without palpable tumors on Day 21” value ([1]; Experiment 2, 8 mg/kg) of the same molecule?
Answer: 0/7

Question: What about the tumor growth inhibition ([2]; positive control, in words) of the same molecule?
Answer: complete tumor growth inhibition

Question: And the “inhibition of the growth of mammary adenocarcinoma 16/c” value [3]?
Answer: complete inhibition

Question: Which results are given for `OCC1OC([S][Au])C(O)C(O)C1O.OCC1OC([S][Au])C(O)C(O)C1O.c1ccc(P(CCP(c2ccccc2)c2ccccc2)c2ccccc2)cc1` [Compound No. 1]?
Answer: IC50 [4]: 1 ± 0.2 µM; Inhibition ([1]; Experiment 1, 12 mg/kg): 96%; Mean Tumor Volume on Day 21 ([1]; Experiment 1, 12 mg/kg): 42 ± 60 mm^3; N.P., proportion of mice without palpable tumors on Day 21 ([1]; Experiment 1, 12 mg/kg): 3/5; IC50 [5]: 5 µM; % Inhibition of tumor growth (Day 18) ([2]; 3 mg/kg/day × 10, ip): 50%; MTV, mean tumor volume on Day 18 ([2]; 3 mg/kg/day × 10, ip): 295 ± 163 mm^3; N.P., proportion of mice without palpable tumor on Day 18 ([2]; 3 mg/kg/day × 10, ip): 0/8; % Inhibition of tumor growth (Day 18) ([2]; 6 mg/kg/day × 10, ip): 98%; MTV, mean tumor volume on Day 18 ([2]; 6 mg/kg/day × 10, ip): 11 ± 28 mm^3; N.P., proportion of mice without palpable tumor on Day 18 ([2]; 6 mg/kg/day × 10, ip): 6/7; inhibition of ADJPC6 Plasmacytoma ([2]; another experiment, same dose (6 mg/kg/day × 10, ip) and schedule): 23%; ILS (MAX), maximum increase in lifespan [6]: 45% and 65%; ILS relative to cisplatin [7]: comparable to the clinically useful antitumor agent cisplatin; activity in the P388 leukemia assay [7]: particularly good activity; ILS (Max), maximum increase in lifespan [7]: 86 ± 8%; average increase in lifespan (ILS) ([8]; B16 melanoma in mice, ip 8, 4, 2, 1 and 0.5 mg/kg, at MTD of 3.4 μM/kg): 32%; ILS, maximum increase in lifespan ([8]; mice bearing ip B16 melanoma, ip qD × 10, slash-separated figures are separate experiments): 37% and 26%

Question: What does the source list for `CC(=O)OC[C@H]1O[C@@H]([S-])[C@H](OC(C)=O)[C@@H](OC(C)=O)[C@@H]1OC(C)=O.CCP(CC)CC.[Au+]` [auranofin]?
Answer: activity in an intraperitoneal P388 leukemia tumor model ([9]; Mirabelli et al. 1984): respectable activity; antitumor effects in animals bearing P388 leukemia ([9]; Simon et al. 1981, Mirabelli et al. 1985): significant antitumor effects

Question: With `c1ccc(P(CCP(c2ccccc2)c2ccccc2)c2ccccc2)cc1` [ethylenebis(diphenylphosphine)] as the molecule, how does the cytotoxic activity [10] read?
Answer: cytotoxic activity

Question: With `CC[PH](CC)(CC)[Au][Se]C1OC(COC(C)=O)C(OC(C)=O)C(OC(C)=O)C1OC(C)=O` (centres unmarked) [selenium analog of auranofin] as the molecule, how does the antiarthritic utility [11] read?
Answer: antiarthritic agents

Question: Which “ILS (MAX), maximum increase in lifespan” value [6] does the source give for “μ-1,2-Bis(Diphenylphosphino)Ethane]Bis[(1-Thio-β-D-Galactopyranosato-S)Gold(I)] [compound 4]” here?
Answer: 37%

Question: And the “ILS (Max), maximum increase in lifespan” value [7]?
Answer: 85% and 100% and 147%

Question: For “μ-8 1,2-Bis(Diphenylphosphino)Ethane]Bis[(2,3,4,6-Tetra-O-Acetyl-1-Thio-α-D-Mannopyranosato-S)Gold(I)] [compound 3]”, which “ILS relative to cisplatin” value [7] is on record?
Answer: comparable to the clinically useful antitumor agent cisplatin

Question: What about the “activity in the P388 leukemia assay” value [7] of the same molecule?
Answer: particularly good activity

Question: And the “ILS (Max), maximum increase in lifespan” value [7]?
Answer: 30% and 25%

Question: Which “ILS (Max), maximum increase in lifespan” value [7] does the source give for “μ-[1,2-Bis(Diphenylphosphino)Ethane]-bis [compound 8, μ-[1,2-Bis(Diphenylphosphino)Ethane]-bis [1-Thio-D-Ribofuranosato-S)Gold(I)]]” here?
Answer: 50% and 56%

Question: Which results are given for “μ-[1,2-Bis(diphenylphosphino)ethane]-bis[1-seleno-β-D-glucopyranosato-se)gold(I)] [compound 7]”?
Answer: ILS (MAX), maximum increase in lifespan [6]: 46%; ILS (Max), maximum increase in lifespan [7]: 36% and 27%

Question: For “μ-[1,2-Bis(diphenylphosphino)ethane]bis[1,thio-α-D-mannopyranosato-S)gold(I)] [compound 5]”, which “ILS (Max), maximum increase in lifespan” value [7] is on record?
Answer: 90% and 74%

Question: Which “ILS (MAX), maximum increase in lifespan” value [6] does the source give for “μ-[1,2-Bis(diphenylphosphino)ethane]bis[2,3,4,6-tetra-O-acetyl-1-thio-β-D-glucopyranosato-S)gold(I)] [compound 2]” here?
Answer: 67%

Question: And the “ILS relative to cisplatin” value [7]?
Answer: comparable to the clinically useful antitumor agent cisplatin

Question: And the “activity in the P388 leukemia assay” value [7]?
Answer: particularly good activity

Question: And the “ILS (Max), maximum increase in lifespan” value [7]?
Answer: 95%

Question: For “μ-[1,3-Bis(diphenylphosphino)propane]bis[1-thio-β-D-glucopyranosato-S)gold(I)] [compound 6]”, which “ILS (MAX), maximum increase in lifespan” value [6] is on record?
Answer: 35%

Question: And the “ILS (Max), maximum increase in lifespan” value [7]?
Answer: 28% and 56% and 41%
